According to patent US20230111310A1, “CARBOXYLIC ACID DERIVATIVE-SUBSTITUTED IMINO ARYL COMPOUND, PREPARATION METHOD THEREFOR, HERBICIDAL COMPOSITION AND USE THEREOF” (Qingdao Kingagroot Chemical Compound Co., Ltd., priority 2020, published 2023):

How the values were obtained:
Experiment in all cases: Weeding effect in post-emergence stage
Type in all cases: in vivo
Conditions in all cases: level of fresh weight growth control rate
Abutilon theophrasti = tested on: Abutilon theophrasti
Procedure, shortened: (§1)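 Pot-grown weeds were sprayed at the 2-3 leaf stage, 2 weeks after sowing, with compound in acetone plus Tween 80 and 1.5 liter/ha methyl oleate emulsifiable concentrate, diluted in water. Doses were 500, 250, 125, 60, 30, 15, 7.5 g/ha. Growth control was scored after 3 weeks in greenhouse; mean of three replicates.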

Alopecurus japonicus = tested on: Alopecurus japonicus
Procedure, shortened: as §1

Digitaria sanguinalis = tested on: Digitaria sanguinalis
Procedure, shortened: as §1

Eleusine indica = tested on: Eleusine indica
Procedure, shortened: as §1

Setaria viridis = tested on: Setaria viridis
Procedure, shortened: as §1

Echinochloa crusgalli = tested on: Echinochloa crusgalli
Procedure, shortened: as §1

Row | Structure (SMILES) | Weeding effect in post-emergence stage, Abutilon theophrasti (Abutilon theophrasti; Dose 15 g/ha) | Weeding effect in post-emergence stage, Alopecurus japonicus (Alopecurus japonicus; Dose 15 g/ha) | Weeding effect in post-emergence stage, Digitaria sanguinalis (Digitaria sanguinalis; Dose 15 g/ha) | Weeding effect in post-emergence stage, Eleusine indica (Eleusine indica; Dose 15 g/ha) | Weeding effect in post-emergence stage, Setaria viridis (Setaria viridis; Dose 15 g/ha) | Weeding effect in post-emergence stage, Echinochloa crusgalli (Echinochloa crusgalli; Dose 15 g/ha) | also measured
1 | COCCOC(=O)[C@@H](C)O/N=C/c1cc(-n2c(=O)cc(C(F)(F)F)n(C)c2=O)c(F)cc1Cl [230(R)] | 5 (Level 5: growth control rate is above 85%) | 5 (Level 5: growth control rate is above 85%) | 5 (Level 5: growth control rate is above 85%) | 5 (Level 5: growth control rate is above 85%) | 5 (Level 5: growth control rate is above 85%) | 5 (Level 5: growth control rate is above 85%) | –
2 | CCOCCOC(=O)[C@@H](C)O/N=C/c1cc(-n2c(=O)cc(C(F)(F)F)n(C)c2=O)c(F)cc1Cl [231(R)] | 5 (Level 5: growth control rate is above 85%) | 5 (Level 5: growth control rate is above 85%) | 5 (Level 5: growth control rate is above 85%) | 5 (Level 5: growth control rate is above 85%) | 5 (Level 5: growth control rate is above 85%) | 5 (Level 5: growth control rate is above 85%) | –
3 | CCCCOCCOC(=O)[C@@H](C)O/N=C/c1cc(-n2c(=O)cc(C(F)(F)F)n(C)c2=O)c(F)cc1Cl [232(R)] | 5 (Level 5: growth control rate is above 85%) | 5 (Level 5: growth control rate is above 85%) | 5 (Level 5: growth control rate is above 85%) | 5 (Level 5: growth control rate is above 85%) | 5 (Level 5: growth control rate is above 85%) | 5 (Level 5: growth control rate is above 85%) | –
4 | CSCOC(=O)[C@@H](C)O/N=C/c1cc(-n2c(=O)cc(C(F)(F)F)n(C)c2=O)c(F)cc1Cl [233(R)] | 5 (Level 5: growth control rate is above 85%) | 5 (Level 5: growth control rate is above 85%) | 5 (Level 5: growth control rate is above 85%) | 5 (Level 5: growth control rate is above 85%) | 5 (Level 5: growth control rate is above 85%) | 5 (Level 5: growth control rate is above 85%) | –
5 | CSCCOC(=O)[C@@H](C)O/N=C/c1cc(-n2c(=O)cc(C(F)(F)F)n(C)c2=O)c(F)cc1Cl [234(R)] | 5 (Level 5: growth control rate is above 85%) | 5 (Level 5: growth control rate is above 85%) | 5 (Level 5: growth control rate is above 85%) | 5 (Level 5: growth control rate is above 85%) | 5 (Level 5: growth control rate is above 85%) | 5 (Level 5: growth control rate is above 85%) | –
6 | CCCOC(=O)OC(=O)[C@@H](C)O/N=C/c1cc(-n2c(=O)cc(C(F)(F)F)n(C)c2=O)c(F)cc1Cl [236(R)] | – | – | – | – | – | – | Weeding effect in post-emergence stage, Abutilon theophrasti (Abutilon theophrasti; Dose 60 g/ha): 5 (Level 5: growth control rate is above 85%); Weeding effect in post-emergence stage, Alopecurus japonicus (Alopecurus japonicus; Dose 60 g/ha): 5 (Level 5: growth control rate is above 85%); Weeding effect in post-emergence stage, Digitaria sanguinalis (Digitaria sanguinalis; Dose 60 g/ha): 5 (Level 5: growth control rate is above 85%); Weeding effect in post-emergence stage, Eleusine indica (Eleusine indica; Dose 60 g/ha): 5 (Level 5: growth control rate is above 85%); Weeding effect in post-emergence stage, Setaria viridis (Setaria viridis; Dose 60 g/ha): 5 (Level 5: growth control rate is above 85%); Weeding effect in post-emergence stage, Echinochloa crusgalli (Echinochloa crusgalli; Dose 60 g/ha): 5 (Level 5: growth control rate is above 85%)
7 | CC(=O)COC(=O)[C@@H](C)O/N=C/c1cc(-n2c(=O)cc(C(F)(F)F)n(C)c2=O)c(F)cc1Cl [238(R)] | 5 (Level 5: growth control rate is above 85%) | 5 (Level 5: growth control rate is above 85%) | 5 (Level 5: growth control rate is above 85%) | 5 (Level 5: growth control rate is above 85%) | 5 (Level 5: growth control rate is above 85%) | 5 (Level 5: growth control rate is above 85%) | –
8 | COC(=O)CCOC(=O)[C@@H](C)O/N=C/c1cc(-n2c(=O)cc(C(F)(F)F)n(C)c2=O)c(F)cc1Cl [240(R)] | – | – | – | – | – | – | Weeding effect in post-emergence stage, Abutilon theophrasti (Abutilon theophrasti; Dose 30 g/ha): 5 (Level 5: growth control rate is above 85%); Weeding effect in post-emergence stage, Alopecurus japonicus (Alopecurus japonicus; Dose 30 g/ha): 5 (Level 5: growth control rate is above 85%); Weeding effect in post-emergence stage, Digitaria sanguinalis (Digitaria sanguinalis; Dose 30 g/ha): 5 (Level 5: growth control rate is above 85%); Weeding effect in post-emergence stage, Eleusine indica (Eleusine indica; Dose 30 g/ha): 5 (Level 5: growth control rate is above 85%); Weeding effect in post-emergence stage, Setaria viridis (Setaria viridis; Dose 30 g/ha): 5 (Level 5: growth control rate is above 85%); Weeding effect in post-emergence stage, Echinochloa crusgalli (Echinochloa crusgalli; Dose 30 g/ha): 5 (Level 5: growth control rate is above 85%)
9 | COC(=O)C(C)OC(=O)[C@@H](C)O/N=C/c1cc(-n2c(=O)cc(C(F)(F)F)n(C)c2=O)c(F)cc1Cl (stereo partly drawn) [241(R)] | – | – | – | – | – | – | Weeding effect in post-emergence stage, Abutilon theophrasti (Abutilon theophrasti; Dose 30 g/ha): 5 (Level 5: growth control rate is above 85%); Weeding effect in post-emergence stage, Alopecurus japonicus (Alopecurus japonicus; Dose 30 g/ha): 5 (Level 5: growth control rate is above 85%); Weeding effect in post-emergence stage, Digitaria sanguinalis (Digitaria sanguinalis; Dose 30 g/ha): 5 (Level 5: growth control rate is above 85%); Weeding effect in post-emergence stage, Eleusine indica (Eleusine indica; Dose 30 g/ha): 5 (Level 5: growth control rate is above 85%); Weeding effect in post-emergence stage, Setaria viridis (Setaria viridis; Dose 30 g/ha): 5 (Level 5: growth control rate is above 85%); Weeding effect in post-emergence stage, Echinochloa crusgalli (Echinochloa crusgalli; Dose 30 g/ha): 5 (Level 5: growth control rate is above 85%)
10 | COC(=O)C(C)(C)OC(=O)[C@@H](C)O/N=C/c1cc(-n2c(=O)cc(C(F)(F)F)n(C)c2=O)c(F)cc1Cl [243(R)] | 5 (Level 5: growth control rate is above 85%) | 5 (Level 5: growth control rate is above 85%) | 5 (Level 5: growth control rate is above 85%) | 5 (Level 5: growth control rate is above 85%) | 5 (Level 5: growth control rate is above 85%) | 5 (Level 5: growth control rate is above 85%) | –
11 | COC(=O)C(OC)OC(=O)[C@@H](C)O/N=C/c1cc(-n2c(=O)cc(C(F)(F)F)n(C)c2=O)c(F)cc1Cl (stereo partly drawn) [245(R)] | – | – | – | – | – | – | Weeding effect in post-emergence stage, Abutilon theophrasti (Abutilon theophrasti; Dose 30 g/ha): 5 (Level 5: growth control rate is above 85%); Weeding effect in post-emergence stage, Alopecurus japonicus (Alopecurus japonicus; Dose 30 g/ha): 5 (Level 5: growth control rate is above 85%); Weeding effect in post-emergence stage, Digitaria sanguinalis (Digitaria sanguinalis; Dose 30 g/ha): 5 (Level 5: growth control rate is above 85%); Weeding effect in post-emergence stage, Eleusine indica (Eleusine indica; Dose 30 g/ha): 5 (Level 5: growth control rate is above 85%); Weeding effect in post-emergence stage, Setaria viridis (Setaria viridis; Dose 30 g/ha): 5 (Level 5: growth control rate is above 85%); Weeding effect in post-emergence stage, Echinochloa crusgalli (Echinochloa crusgalli; Dose 30 g/ha): 5 (Level 5: growth control rate is above 85%)
12 | C/C(=N\OC(=O)[C@@H](C)O/N=C/c1cc(-n2c(=O)cc(C(F)(F)F)n(C)c2=O)c(F)cc1Cl)C(C)C [250(R)] | 5 (Level 5: growth control rate is above 85%) | 5 (Level 5: growth control rate is above 85%) | 5 (Level 5: growth control rate is above 85%) | 5 (Level 5: growth control rate is above 85%) | 5 (Level 5: growth control rate is above 85%) | 5 (Level 5: growth control rate is above 85%) | –
13 | CCC(CC)=NOC(=O)[C@@H](C)O/N=C/c1cc(-n2c(=O)cc(C(F)(F)F)n(C)c2=O)c(F)cc1Cl [251(R)] | 5 (Level 5: growth control rate is above 85%) | 5 (Level 5: growth control rate is above 85%) | 5 (Level 5: growth control rate is above 85%) | 5 (Level 5: growth control rate is above 85%) | 5 (Level 5: growth control rate is above 85%) | 5 (Level 5: growth control rate is above 85%) | –
